By MIC is commonly meant the least concentration at which growth counts as inhibited.

SMILES strings stand for the structures. ≈ marks a conversion by molar mass, not a printed value. Where two headings read alike, the source gives them in different places.

This passage reports MIC results from patent publication US20090156577A1, “7-AMINO ALKYLIDENYL-HETEROCYCLIC QUINOLONES AND NAPHTHYRIDONES” (priority 2004, published 2009).

The test system of the test is pathogenic bacteria. In words: MIC by microdilution broth method (NCCLS M7-A4), in vitro antibacterial activity. Format: cell-based. In short, it runs like this: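 MIC read after 35 °C incubation for 16–20 h relative to drug-free growth wells. Cation-adjusted Mueller-Hinton broth with two-fold compound dilutions, organisms at roughly 5×10^4 CFU/well final. Method follows NCCLS document M7-A4.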
On the technique in general: Broth dilution looks for growth in wells or tubes with falling amounts of substance.

Where [1] appears, read: Staphylococcus aureus, Organism A: Staphylococcus aureus OC4172, read-out: MIC.
[2] abbreviates: Streptococcus pneumoniae, ATCC49619, Organism E: Streptococcus pneumoniae ATCC 49619, read-out: MIC.
Setting [3] is: Streptococcus pneumoniae, Organism B: fluoroquinolone-resistant clinical isolate of Streptococcus pneumoniae (QRDR amino acid substitutions).
[4] abbreviates: Streptococcus pneumoniae, Organism C: fluoroquinolone-resistant clinical isolate of Streptococcus pneumoniae (QRDR amino acid substitutions).
[5] abbreviates: Streptococcus pneumoniae, Organism D: fluoroquinolone-resistant clinical isolate of Streptococcus pneumoniae (QRDR amino acid substitutions).

Consider `NC/C(F)=C1/CCCN(c2c(F)cc3c(=O)c(C(=O)O)cn(C4CC4)c3c2OC(F)F)C1` [Compound 259, (E)-7-[3-(2-Amino-1-fluoro-ethylidene)-piperidin-1-yl]-1-cyclopropyl-8-difluoromethoxy-6-fluoro-4-oxo-1,4-dihydro-quinoline-3-carboxylic acid], for which the MIC under setting [1] was determined as 0.03 µg/mL (≈ 0.0659 µM); the minimum inhibitory concentration (MIC) under setting [2] is 0.06 µg/mL (≈ 0.132 µM); it took 0.5 µg/mL (≈ 1.1 µM) to inhibit growth under setting [3] (MIC); the minimal inhibitory concentration (MIC) under setting [4] is 1 µg/mL (≈ 2.2 µM); the MIC under setting [5] amounted to 0.12 µg/mL (≈ 0.263 µM).
For `NC/C(Cl)=C1/CCCN(c2c(F)cc3c(=O)c(C(=O)O)cn(-c4nc(N)c(F)cc4F)c3c2Cl)C1` [Compound 412, (E)-1-(6-Amino-3,5-difluoro-pyridin-2-yl)-7-[3-(2-amino-1-chloro-ethylidene)-piperidin-1-yl]8-chloro-6-fluoro-4-oxo-1,4-dihydro-quinoline-3-carboxylic acid], the MIC was 0.12 µg/mL (≈ 0.227 µM) under setting [1]; 1 µg/mL (≈ 1.89 µM) under setting [2]; 16 µg/mL (≈ 30.3 µM) under setting [3]; over 16 µg/mL under setting [4]; 8 µg/mL (≈ 15.1 µM) under setting [5].
On to `NCC(F)=C1CCN(c2nc3c(cc2F)c(=O)c(C(=O)O)cn3-c2ccc(F)cc2F)CC1` [Compound 4, 7-[4-(2-Amino-1-fluoro-ethylidene)-piperidin-1-yl]-1-(2,4-difluoro-phenyl)-6-fluoro-4-oxo-1,4-dihydro-[1,8]naphthyridine-3-carboxylic acid], for which the MIC by setting is: under setting [1], 0.06 µg/mL (≈ 0.13 µM); under setting [2], 0.25 µg/mL (≈ 0.541 µM); under setting [4], 1 µg/mL (≈ 2.16 µM); under setting [5], 2 µg/mL (≈ 4.33 µM).
With `N#CC(CN)=C1CCN(c2nc3c(cc2F)c(=O)c(C(=O)O)cn3C2CC2)CC1` [Compound 283, 7-[4-(2-Amino-1-cyano-ethylidene)-piperidin-1-yl]-1-cyclopropyl-6-fluoro-4-oxo-1,4-dihydro-[1,8]naphthyridine-3-carboxylic Acid], the MIC under setting [1] was found to be 0.25 µg/mL (≈ 0.629 µM); the MIC under setting [2] came out at 0.5 µg/mL (≈ 1.26 µM); the MIC under setting [3] is 2 µg/mL (≈ 5.03 µM); the minimal inhibitory concentration (MIC) under setting [4] turned out to be 4 µg/mL (≈ 10.1 µM); the minimal inhibitory concentration (MIC) under setting [5] worked out at 8 µg/mL (≈ 20.1 µM).
Consider `NC/C(F)=C1\COCCN(c2cc3c(cc2F)c(=O)c(C(=O)O)cn3C2CC2)C1` [Compound 504, (E)-7-[6-(2-Amino-1-fluoro-ethylidene)-[1,4]oxazepan-4-yl]-1-cyclopropyl-6-fluoro-4-oxo-1,4-dihydro-quinoline-3-carboxylic acid], for which the minimal inhibitory concentration (MIC) was determined as 2 µg/mL (≈ 4.93 µM) under setting [1], 16 µg/mL (≈ 39.5 µM) under setting [2], 8 µg/mL (≈ 19.7 µM) under setting [4] and 4 µg/mL (≈ 9.87 µM) under setting [5].
On the same counts, the results for `COc1c(N2CCC/C(=C(/F)CN)CC2)c(F)cc2c(=O)c(C(=O)O)cn(C3CC3)c12` [Compound 505, (Z)-7-[4-(2-Amino-1-fluoro-ethylidene)-azepan-1-yl]-1-cyclopropyl-6-fluoro-8-methoxy-4-oxo-1,4-dihydro-quinoline-3-carboxylic acid] are 0.12 µg/mL (≈ 0.277 µM), 0.25 µg/mL (≈ 0.577 µM), 4 µg/mL (≈ 9.23 µM) and 1 µg/mL (≈ 2.31 µM).
Regarding `NC/C(Cl)=C1\CCCN(c2nc3c(cc2F)c(=O)c(C(=O)O)cn3C2CC2)C1` [Compound 255, (Z)-7-[3-(2-Amino-1-chloro-ethylidene)-piperidin-1-yl]-1-cyclopropyl-6-fluoro-4-oxo-1,4-dihydro-[1,8]naphthyridine-3-carboxylic acid], the MIC runs as follows: under setting [1], 0.5 µg/mL (≈ 1.23 µM); under setting [2], 4 µg/mL (≈ 9.83 µM); under setting [3], 2 µg/mL (≈ 4.92 µM); under setting [4], 4 µg/mL (≈ 9.83 µM); under setting [5], 16 µg/mL (≈ 39.3 µM).
For `COc1c(N2CCC(=C(F)CN(C)C)CC2)c(F)cc2c(=O)c(C(=O)O)cn(C3CC3)c12` [Compound 199, 1-Cyclopropyl-7-[4-(2-dimethylamino-1-fluoro-ethylidene)-piperidin-1-yl]-6-fluoro-8-methoxy-4-oxo-1,4-dihydro-quinoline-3-carboxylic acid], the MIC came out at 0.06 µg/mL (≈ 0.134 µM) under setting [1]; 0.25 µg/mL (≈ 0.559 µM) under setting [2]; 1 µg/mL (≈ 2.23 µM) under setting [3]; 2 µg/mL (≈ 4.47 µM) under setting [4]; 1 µg/mL (≈ 2.23 µM) under setting [5].
With `NCC(F)=C1CN(c2cc3c(cc2F)c(=O)c(C(=O)O)cn3C2CC2)C1` [Compound 272, 7-[3-(2-amino-1-fluoro-ethylidene)-azetidin-1-yl]-1-cyclopropyl-6-fluoro-4-oxo-1,4-dihydro-quinoline-3-carboxylic acid], the MIC was at most 0.015 µg/mL under setting [1], 0.5 µg/mL (≈ 1.38 µM) under setting [2], 4 µg/mL (≈ 11.1 µM) under setting [3] and 0.5 µg/mL (≈ 1.38 µM) under setting [4].
As for `C[C@H]1COc2c(N3CCC/C(=C(/Cl)CN)CC3)c(F)cc3c(=O)c(C(=O)O)cn1c23` [Compound 372, (3S)-9-[(Z)-4-(2-Amino-1-chloro-ethylidene)-azepan-1-yl]-8-fluoro-3-methyl-6-oxo-2,3-dihydro-6H-1-oxa-3a-aza-phenalene-5-carboxylic Acid], the minimum inhibitory concentration (MIC) is, setting by setting: under setting [1], 0.5 µg/mL (≈ 1.15 µM); under setting [2], 2 µg/mL (≈ 4.59 µM); under setting [4], 16 µg/mL (≈ 36.7 µM); under setting [5], 8 µg/mL (≈ 18.4 µM).
On to `NCC(Cl)=C1CCN(c2c(F)cc3c(=O)c(C(=O)O)cn(C4CC4)c3c2OC(F)F)CC1` [Compound 73, 7-[4-(2-Amino-1-chloro-ethylidene)-piperidin-1-yl]-1-cyclopropyl-8-difluoromethoxy-6-fluoro-4-oxo-1,4-dihydro-quinoline-3-carboxylic acid], for which the MIC runs as follows: under setting [1], 0.06 µg/mL (≈ 0.127 µM); under setting [2], 0.12 µg/mL (≈ 0.254 µM); under setting [3], 0.5 µg/mL (≈ 1.06 µM); under setting [4], 1 µg/mL (≈ 2.12 µM); under setting [5], 0.25 µg/mL (≈ 0.53 µM).
With `NCC(F)=C1CN(c2c(F)cc3c(=O)c(C(=O)O)cn(-c4nc(N)c(F)cc4F)c3c2Cl)C1` [Compound 269, 1-(6-Amino-3,5-difluoro-pyridin-2-yl)-7-[3-(2-amino-1-fluoro-ethylidene)-azetidin-1-yl]-8-chloro-6-fluoro-4-oxo-1,4-dihydro-quinoline-3-carboxylic acid], the MIC is, setting by setting: under setting [1], at most 0.015 µg/mL; under setting [2], 0.03 µg/mL (≈ 0.062 µM); under setting [3], 0.25 µg/mL (≈ 0.517 µM); under setting [4], 0.06 µg/mL (≈ 0.124 µM).
With `COc1c(N2CCC/C(=C(\C)CN)C2)c(F)cc2c(=O)c(C(=O)O)cn(C3CC3)c12` [Compound 302, (Z)-7-[3-(2-Amino-1-methyl-ethylidene)-piperidin-1-yl]-1-cyclopropyl-6-fluoro-8-methoxy-4-oxo-1,4-dihydro-quinoline-3-carboxylic acid], the MIC is, setting by setting: under setting [1], at most 0.03 µg/mL; under setting [2], at most 0.12 µg/mL; under setting [3], 1 µg/mL (≈ 2.41 µM); under setting [4], at most 0.5 µg/mL; under setting [5], 1 µg/mL (≈ 2.41 µM).
Consider `CNCC(Cl)=C1CCN(c2nc3c(cc2F)c(=O)c(C(=O)O)cn3C2CC2)CC1` [Compound 215, 7-[4-(1-Chloro-2-methylamino-ethylidene)-piperidin-1-yl]-1-cyclopropyl-6-fluoro-4-oxo-1,4-dihydro-[1,8]naphthyridine-3-carboxylic acid], for which the MIC runs as follows: (Organism A: Staphylococcus aureus OC4172) 0.25 µg/mL (≈ 0.594 µM); (Organism B: fluoroquinolone-resistant clinical isolate of Streptococcus pneumoniae (QRDR amino acid substitutions)) 2 µg/mL (≈ 4.75 µM); under setting [2], 0.25 µg/mL (≈ 0.594 µM); under setting [4], 2 µg/mL (≈ 4.75 µM); under setting [5], 2 µg/mL (≈ 4.75 µM).
Take `NC/C=C1\CCCN(c2nc3c(cc2F)c(=O)c(C(=O)O)cn3C2CC2)C1` [Compound 376, (E)-7-[3-(2-Amino-ethylidene)-piperidin-1-yl]-1-cyclopropyl-6-fluoro-4-oxo-1,4-dihydro-[1,8]naphthyridine-3-carboxylic acid]: the MIC is, setting by setting: under setting [1], 0.25 µg/mL (≈ 0.671 µM); under setting [2], 1 µg/mL (≈ 2.69 µM); under setting [4], over 16 µg/mL; under setting [5], over 16 µg/mL.
With `Cc1c(F)c(N2CC(=C(Cl)CO)C2)cc2c1c(=O)c(C(=O)O)cn2C1CC1` [Compound 364, 7-[3-(1-Chloro-2-hydroxy-ethylidene)-azetidin-1-yl]-1-cyclopropyl-6-fluoro-5-methyl-4-oxo-1,4-dihydro-quinoline-3-carboxylic Acid], the MIC was 0.06 µg/mL (≈ 0.153 µM) under setting [1]; 2 µg/mL (≈ 5.09 µM) under setting [2]; over 16 µg/mL under setting [3]; over 16 µg/mL under setting [4]; over 16 µg/mL under setting [5].
For the compound `CC(CN)=C1CCN(c2nc3c(cc2F)c(=O)c(C(=O)O)cn3C2CC2)CC1` [Compound 2, 7-[4-(2-Amino-1-methyl-ethylidene)-piperidin-1-yl]-1-cyclopropyl-6-fluoro-4-oxo-1,4-dihydro-[1,8]naphthyridine-3-carboxylic acid], the minimum inhibitory concentration (MIC) turned out to be 0.06 µg/mL (≈ 0.155 µM) under setting [1]; 0.12 µg/mL (≈ 0.311 µM) under setting [2]; 0.25 µg/mL (≈ 0.647 µM) under setting [3]; 1 µg/mL (≈ 2.59 µM) under setting [4]; 1 µg/mL (≈ 2.59 µM) under setting [5].
Take `CN(CC(Cl)=C1CCN(c2c(F)cc3c(=O)c(C(=O)O)cn(C4CC4)c3c2OC(F)F)CC1)Cc1ccccc1` [Compound 206, 7-{4-[2-(Benzyl-methyl-amino)-1-chloro-ethylidene]-piperidin-1-yl}-1-cyclopropyl-8-difluoromethoxy-6-fluoro-4-oxo-1,4-dihydro-quinoline-3-carboxylic acid]: the MIC was 1 µg/mL (≈ 1.74 µM) under setting [1], 4 µg/mL (≈ 6.94 µM) under setting [2], 4 µg/mL (≈ 6.94 µM) under setting [4] and 4 µg/mL (≈ 6.94 µM) under setting [5].
Take `C[C@H]1COc2c(N3CCC(=C(Cl)CN)CC3)c(F)cc3c(=O)c(C(=O)O)cn1c23` [Compound 277, 9-[4-(2-Amino-1-chloro-ethylidene)-piperidin-1-yl]-8-fluoro-(3S)-3-methyl-6-oxo-2,3-dihydro-6H-1-oxa-3a-aza-phenalene-5-carboxylic acid]: the minimum inhibitory concentration (MIC) is at most 0.015 µg/mL under setting [1]; 0.03 µg/mL (≈ 0.0711 µM) under setting [2]; 0.25 µg/mL (≈ 0.593 µM) under setting [3]; 0.25 µg/mL (≈ 0.593 µM) under setting [4]; 0.5 µg/mL (≈ 1.19 µM) under setting [5].
As to `CN(C)CC(Cl)=C1CCN(c2nc3c(cc2F)c(=O)c(C(=O)O)cn3C2CC2)CC1` [Compound 180, 7-[4-(1-Chloro-2-dimethylamino-ethylidene)-piperidin-1-yl]-1-cyclopropyl-6-fluoro-4-oxo-1,4-dihydro-[1,8]naphthyridine-3-carboxylic acid], the MIC under setting [1] came out at 0.5 µg/mL (≈ 1.15 µM), the MIC under setting [2] was found to be 0.5 µg/mL (≈ 1.15 µM), inhibition of growth under setting [4] (MIC) required 8 µg/mL (≈ 18.4 µM) and the MIC under setting [5] is 2 µg/mL (≈ 4.6 µM).
